Measurements reported in US9539256B2 (THE BOARD OF REGENTS OF THE UNIVERSITY OF TEXAS SYSTEM, priority 2012, dated 2017).
“Also recorded” adds a separate entry of the source.

How the values were obtained:
EPAC1 = target: T1, EPAC1 (Homo sapiens, UniProt O95398); experiment: Rap1-GDP exchange (GEF) activity assay, EPAC1
T1 sequence (O95398 1-923): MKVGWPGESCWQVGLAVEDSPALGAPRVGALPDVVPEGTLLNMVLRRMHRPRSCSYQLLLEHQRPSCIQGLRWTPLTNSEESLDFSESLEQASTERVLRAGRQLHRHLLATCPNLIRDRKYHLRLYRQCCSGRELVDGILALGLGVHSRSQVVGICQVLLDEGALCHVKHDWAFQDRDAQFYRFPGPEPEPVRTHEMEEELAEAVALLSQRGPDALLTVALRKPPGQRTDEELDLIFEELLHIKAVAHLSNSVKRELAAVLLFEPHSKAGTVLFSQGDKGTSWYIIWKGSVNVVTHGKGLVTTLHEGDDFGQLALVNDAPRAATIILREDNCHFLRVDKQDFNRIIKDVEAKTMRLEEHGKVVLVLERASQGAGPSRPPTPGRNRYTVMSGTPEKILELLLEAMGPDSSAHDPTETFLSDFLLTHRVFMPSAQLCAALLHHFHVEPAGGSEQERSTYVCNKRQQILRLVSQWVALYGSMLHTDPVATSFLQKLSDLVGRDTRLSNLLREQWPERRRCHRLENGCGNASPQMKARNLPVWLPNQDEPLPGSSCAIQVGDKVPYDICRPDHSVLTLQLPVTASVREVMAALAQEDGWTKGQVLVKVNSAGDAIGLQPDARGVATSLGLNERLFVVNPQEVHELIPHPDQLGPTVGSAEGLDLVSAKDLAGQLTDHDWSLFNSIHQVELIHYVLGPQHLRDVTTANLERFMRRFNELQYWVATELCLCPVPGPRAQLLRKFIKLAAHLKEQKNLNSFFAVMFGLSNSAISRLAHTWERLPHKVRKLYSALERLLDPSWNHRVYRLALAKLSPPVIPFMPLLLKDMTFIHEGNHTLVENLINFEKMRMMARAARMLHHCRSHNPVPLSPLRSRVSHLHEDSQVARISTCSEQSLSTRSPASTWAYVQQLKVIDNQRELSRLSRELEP

EPAC2 = target: T2, EPAC2 (Mus musculus, UniProt Q9EQZ6); experiment: 8-NBD-cAMP competition binding to EPAC2
T2 sequence (Q9EQZ6 1-1011): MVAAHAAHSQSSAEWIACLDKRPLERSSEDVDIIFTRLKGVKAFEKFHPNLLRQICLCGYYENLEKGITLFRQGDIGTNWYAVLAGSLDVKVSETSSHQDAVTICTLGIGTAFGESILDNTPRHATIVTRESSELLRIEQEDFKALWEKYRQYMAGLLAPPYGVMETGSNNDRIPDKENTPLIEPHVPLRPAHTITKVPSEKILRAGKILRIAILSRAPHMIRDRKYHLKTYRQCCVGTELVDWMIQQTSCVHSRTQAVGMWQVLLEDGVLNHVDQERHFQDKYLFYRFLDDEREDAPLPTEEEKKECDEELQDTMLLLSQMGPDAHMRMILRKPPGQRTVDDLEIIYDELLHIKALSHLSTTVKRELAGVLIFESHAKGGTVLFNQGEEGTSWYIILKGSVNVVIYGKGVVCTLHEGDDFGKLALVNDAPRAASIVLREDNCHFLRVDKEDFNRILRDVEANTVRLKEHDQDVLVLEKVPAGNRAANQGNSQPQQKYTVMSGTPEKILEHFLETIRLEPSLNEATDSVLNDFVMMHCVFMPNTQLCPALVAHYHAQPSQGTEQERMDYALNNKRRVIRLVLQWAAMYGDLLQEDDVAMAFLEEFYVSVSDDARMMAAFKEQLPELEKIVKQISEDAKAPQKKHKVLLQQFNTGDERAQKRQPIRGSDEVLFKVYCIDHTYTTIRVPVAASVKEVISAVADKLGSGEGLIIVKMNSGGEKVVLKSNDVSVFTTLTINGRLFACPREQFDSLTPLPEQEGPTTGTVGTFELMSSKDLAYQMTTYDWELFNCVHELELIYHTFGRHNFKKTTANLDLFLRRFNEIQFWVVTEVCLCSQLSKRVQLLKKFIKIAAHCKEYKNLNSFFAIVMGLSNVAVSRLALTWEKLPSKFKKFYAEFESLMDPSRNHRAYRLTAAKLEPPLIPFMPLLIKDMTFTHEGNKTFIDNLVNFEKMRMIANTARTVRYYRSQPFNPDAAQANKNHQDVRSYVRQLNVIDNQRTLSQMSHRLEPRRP
Experimental: Primary screen is performed in black 96-well or 384-well microplates. As an example, 50 nM EPAC2 solution is prepared in 20 mM Tris buffer, pH 7.5, containing 150 mM NaCl, 1 mM EDTA, and 1 mM […]. […] Sample is dispensed into plate and test compounds added from 96-well mother plates. […] Fluorescence intensity signal from 8-NBD was recorded at room temperature (rt) before and after tested compounds are added using SpectaMaxM2 microplate reader (Molecular Devices, Silicon Valley, Calif., USA) with excitation/emission wavelengths set at 470/540 nm.

[1] = In vivo pharmacokinetic study, blood time-concentration curve; settings: single IP injection 10 mg/kg, mice
Experimental: FIG. 19. Mice blood time-concentration curve of ESI-09.
To determine the bioavailability of EPAC inhibitors, an IP injection formulation was developed in which the compounds were dissolved in ethanol and then diluted 1:10 with a 10% Tween 80 in normal saline solution. This formulation was determined suitable by passing the simulated in vivo blood dilution assay. In vivo pharmacokinetic studies were performed in four week old female C57BL6/N mice.

R. australia = experiment: Lethal-dose R. australia infection of mice; assay type: in vivo; settings: WT C57BL/6 mice, 10 mg/kg, IP daily
Experimental: FIG. 21. ESI-09 treatment protects mice from lethal-dose infection of R. australia. WT C57BL/6 mice were treated with vehicle or ESI-09 (10 mg/kg, IP) daily. Five days after the treatment, mice were challenged with lethal dose of R. australia and continued ESI-09 daily treatment. Severity of illness and survival rate were monitored.
To test if EPAC inhibitors are capable of protecting mice from lethal-dose infection of R. australia. WT C57BL/6 mice were treated with vehicle or ESI-09 (10 mg/kg, IP) daily. Five days after the treatment, mice were challenged with lethal dose of R. australia and continued ESI-09 daily treatment.

## CC(C)(C)c1cc(C(=O)C(C#N)=NNc2cccc(Cl)c2)no1 [ESI-09, 3-(5-Tert-Butyl-Isoxazol-3-Yl)-2-[(3-Chlorophenyl)-Hydrazono]-3-Oxo-Propionitrile]
EPAC1
  IC50: 3.2 µM
EPAC2; RA = IC50, cAMP/IC50, compound
  Relative Potency (RA): 3.9
EPAC2; read-out: Apparent IC50, competing with 8-NBD-cAMP in binding EPAC2
  IC50: 10 ± 1.2 µM
[1]; female, C57BL6/N, mouse, whole blood
  half-life: 3.5 h
[1]
  blood levels, maximal values: 42,520 ng/ml
  time of maximal blood level: 0.5 h
R. australia
  protection of R. australia infection: striking protection; also recorded: protects
  treatment group showing sign of sickness: 10%
